This is an account of results in patent US8088897B2, “Assay method for group transfer reactions” (BellBrook Labs, Inc., priority 2003, dated 2012).

pIC50: −log10 of the molar value. Read-outs that look alike come from different tables or passages of the source.

Assay [1] deals with T1, SULT1E1 (Homo sapiens, UniProt P49888).
T1 construct: made in house; host or cells: E. coli
T1 sequence (P49888 1-294): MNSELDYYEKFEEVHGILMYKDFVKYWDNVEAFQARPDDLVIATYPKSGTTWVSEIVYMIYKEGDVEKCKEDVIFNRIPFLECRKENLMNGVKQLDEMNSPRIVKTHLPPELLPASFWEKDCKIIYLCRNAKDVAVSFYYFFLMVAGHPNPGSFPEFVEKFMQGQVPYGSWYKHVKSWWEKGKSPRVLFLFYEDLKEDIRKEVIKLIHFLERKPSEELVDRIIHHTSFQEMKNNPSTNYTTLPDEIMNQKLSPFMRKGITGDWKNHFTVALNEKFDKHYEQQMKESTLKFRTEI
The experiment in a line: SULT1E1 enzymatic properties (Km, acceptor substrate specificity). The following applies: for acceptor substrate specificity: purified SULT1E1. The format is biochemical. The source says: In order to establish a sulfotransferase HTS assay method, SULT1E1, a SULT isoform, was first subcloned into an E. coli expression vector with a C-terminal 6× histidine tag and the expressed protein was purified by affinity chromatography and characterized with respect to its physical and enzymatic properties.

The test system of another assay is Ab 1781. Put plainly: FP competition curves with Ab 1781 and PAP tracer. The format is binding, rabbit. As to conditions: 1 nM C8-PAP-F14 tracer, 3 uL Ab 1781; read-out: IC50 for displacement of tracer. How it is done:
(§1) Competitors were serially diluted two-fold in a black 384-well microtiter plate containing 50 mM phosphate buffer (pH 7.4), 150 mM NaCl, 0.1 mg/mL BGG, 1 nM Tracer C8-PAP-F14, and either 1.5 uL Ab 3642 (A) or 3 uL Ab 1781 (B) in a total volume of 12 uL. After one hour incubation at room temperature, the polarization values were read on a Tecan Ultra (Ex485/Em535). The mean and standard deviation of duplicates for all data sets are shown.

The subject of the next assay is Ab 3642. Put plainly: FP competition curves with Ab 3642 and PAP tracer. The format is binding, rabbit. The following applies: read-out: IC50 for displacement of tracer. How it is done:
N6-PAP-6F8 tracer is represented by the open symbols: ◯ (PAP), □ (PAPS). C8-PAP-F14 tracer is represented with the closed symbols: ● (PAP), ▪ (PAPS). PAP or PAPS was serially diluted two-fold in black mutiwell plates containing 50 mM phosphate buffer (pH 7.4), 150 mM NaCl, 0.1 mg/mL BGG, 1 nM C8-PAP-F14, and 1.5 uL purified Ab 3642 in a total volume of 12 μl or 1 nM N6-PAP-F8 and 0.5 uL 3642 Ab in a 20 uL volume. Polarization values were read after one hour at room temperature.
as §1

Assay [2] addresses polyclonal antibody raised against a mixture of UTP and UDP conjugated to KLH (UGT-1). The experiment in a line: Competitive FP displacement of UTP tracers from anti-UDP/UTP antibody by uridine nucleotides. The format is binding, rabbit. On the procedure: To detect UGT catalytic activity a series of experiments were performed using the antibodies and tracers described above. […] The antibody and 2 nM of a commercially available Alexa® 488-5-aminoalkynyl-UTP molecule (Molecular Probes) were added to wells of a black multiwell plate (Thermo Labsystems Pt# 7605) containing the indicated amounts of uridine nucleotides in 50 mM KPO4pH 7.5, 150 mM NaCl, 0.1 mg/ml BGG . Fluorescence polarization was read in a Tecan Ultra plate reader after several hours of equilibration at room temperature using a Ex485/Em535 filter set.
Applicants further note that the ability of the antibody to selectively recognize low micromolar concentrations of UDP in the presence of UDPGA concentrations typically used for UGT assays —50-100μM —is important for achieving a low signal to background. Varying the structure of the immunogen, as mentioned above, is one way to change the relative binding properties of antibodies for UDP and UDPGA. Another way that is not as immediately obvious is to vary the tracer structure. The method depends on the relative ability of UDP and UDPGA to competitively displace the tracer from antibody, and it is reasonable to assume that not all tracers will show the same relative response to the two nucleotides. An example of such tracer effects is summarized in FIGS. 10 A and B. In this example, two different tracers are compared. The tracers are conjugates of 5-aminoallyl UTP to two different amine reactive Alexa Fluors®, one with an excitation peak of 546 and the other with an excitation of 568. Both of these tracers are displaced from antibody (anti-UDP rabbit polyclonal Ab or UGT-1) in a similar manner by UDP. […] Thus, the signal to background of the UGT assay with a given antibody can be enhanced by identifying tracers that are displaced by UDP more effectively than UDPGA.

Another assay addresses GDP monoclonal antibody. The experiment in a line: FP competition binding of GDP vs GTP to monoclonal antibody-tracer complex. The following applies: 2 nM far red Tracer, 0.85 μg/mL antibody, one hour. Also noted: species or system mouse. On the procedure: Fluorescence intensity and polarization measurements utilizing the ADP-Alexa Fluor® or GDP-Alexa Fluor® tracers were performed on a Tecan Ultra or Safire^2™ plate reader (Durham, N.C.) using appropriate filter sets. For the ADP-Alexa Fluor®633 tracer, the filters for the Safire2 were 635 nm excitiation (LED) and 670 emission (20 nm bandwidth). The free tracer reference was set to 20 mP, and the buffer (with or without antibody) was used as the buffer blank for both the sample and free tracer reference wells. Data from binding and competition curves were fit to a variable slope sigmoidal dose-response curve and the IC50 were calculated using GraphPad Prism (GraphPad Software, San Diego, Calif.).
To identify suitable antibody/tracer pairs for FP assay development, equilibrium binding assays were performed by titrating ADP/GDP antibodies with a panel of ADP/GDP tracers (1-2 nM). The first well consisted of 1 mg/mL antibody in 30 μL of the final equilibrium buffer (i.e. 50 mM HEPES (pH 7.5), 0.01% Brij-35, 1 mM EGTA, 2 mM MgCl2, 0.5% DMSO, 20 mM EDTA, and 2 nM tracer). A two-fold serial dilution of the antibody was then performed in 15 μL of the same buffer. […]
In one example, the monoclonal antibody binding selectivity between GDP vs. GTP was analyzed and the results are set forth in FIG. 27. […]

The next assay relates to UGT 2B7 Baculosomes. The experiment in a line: Mock UGT reactions: signal stabilization and reaction quenching. The following applies: EGTA at 80 mM, sodium vanadate at 30 mM; for effect on UDP breakdown: 5 μM UDP added, no acceptor substrate. The format is biochemical. How it is done:
UGT enzymes are available only as crude membrane preparations that contain many other enzymes besides the desired UGT. Some of these contaminating enzymes can catalyze hydrolysis of the UDP molecule to UMP or Uridine, resulting in an unstable signal for the assay. To prevent this, agents such as sodium vanadate and EGTA are added to stabilize the assay signal by preventing breakdown of the UDP formed during the UGT reaction. […] The use of such a quenching reagent provides greater flexibility in experimental protocols because HTS assay plates may be read at any time after the quench reagent is added.

Assay [3] has as its system Protein G-purified Anti-ADP antibody. Put plainly: FP competition with 5-FAM-N6-ADP tracer and anti-ADP polyclonal antibody. The following applies: 1 nM 5-FAM-N6-ADP tracer; for pIC50: 19 hours room temperature, read-out: half maximal point in the competition curve (IC50); for amount required to displace the tracer: compared with ADP and ATP. The format is binding, rabbit. The source says:
To develop an anti-ADP antibody, 6-aminobutyl-ADP (Biolog Life Science Inst., Bremen, Germany) was conjugated to keyhole limpet hemocyanin with a suitable reagent such as glutaraldehyde and used to immunize rabbits. Other carrier proteins such as BSA or ovalbumin and other conjugation chemistries may be used. Attachment to carrier protein via the adenine ring exposes the ribosyl-phosphate moiety, where selectivity is required, and minimizes exposure of the adenine ring. The resulting antisera was tested for ADP binding affinity and selectivity in competitive fluorescence polarization binding assays. Synthesis of the fluor-ADP conjugates used as tracers in these binding assays is described below. […] The reaction mixtures consisted of 50 mM KPO4, 150 mM NaCl, 0.1 mg/mL BGG, 1 nM tracer, 3% Protein G-purified Anti-ADP antibody, and competitor. The reaction mixtures were incubated for 19 hours at room temperature. Competitors included ADP (∘), ATP (●), Adenosine (▪), and AMP (▴).

Assay [4] has as its target T1, SULT1E1. As to conditions: acceptor substrate; read-out: Km, published values for purified recombinant SULT1E1; cited from earlier work.
Setting [5] is: 1 nM C8-PAP-F14 tracer, 1.5 uL Ab 3642.
Where [6] appears, read: Alexa 546 5-aminoallyl UTP tracer, UGT-1, read-out: IC50 for displacement of tracer from antibody.
Where [7] appears, read: 2 nM Alexa 488-5-aminoalkynyl-UTP tracer, UGT-1 antibody, read-out: half maximal values (IC50) for competing off the tracer.

`C[C@]12CC[C@H](O)CC1=CC[C@@H]1[C@@H]2CC[C@]2(C)C(=O)CC[C@@H]12` [DHEA]: the acceptor substrate specificity result at SULT1E1 [1] is “very poor substrates”.

As for `Nc1ncnc2c1ncn2[C@@H]1O[C@H](COP(=O)(O)OS(=O)(=O)O)[C@@H](OP(=O)(O)O)[C@H]1O` [PAPS, 3′-Phosphoadenosine 5′-phosphosulphate], at SULT1E1 [1] (donor, read-out: Km for PAPS with SULT1E1), the Km (commonly the substrate concentration at which the rate is half of its maximum) was around 0.05 µM. Further, the results for the pIC50 in the assay on Ab 1781 and in the assay with Ab 3642 (setting [5]) were 5.82 and 5.42, respectively.

On to `O=C(O)[C@H]1O[C@H](OP(=O)(O)OP(=O)(O)OC[C@H]2O[C@@H](n3ccc(=O)[nH]c3=O)[C@H](O)[C@@H]2O)[C@H](O)[C@@H](O)[C@@H]1O` [UDPGA, UDP-glucuronic acid], for which the pIC50 – broadly, −log10 of the IC50, conventionally taken in molar units – is around 2.70 in assay [2] (2 nM Alexa 488-5-aminoalkynyl-UTP tracer, UGT-1 antibody, read-out: IC50 for competing off the tracer) and 2.92 in assay [2] (setting [6]).

With `Nc1nc2c(ncn2[C@@H]2O[C@H](COP(=O)(O)OP(=O)(O)OP(=O)(O)O)[C@@H](O)[C@H]2O)c(=O)[nH]1` [GTP, guanosine triphosphate], the pIC50 on GDP monoclonal antibody was 5.89.

As to `Nc1ncnc2c1ncn2[C@@H]1O[C@H](COP(=O)(O)O)[C@@H](OP(=O)(O)O)[C@H]1O` [PAP, 3′-phosphoadenosine 5′-phosphate], the pIC50 with Ab 1781 was 6.52; in the assay with Ab 3642 (setting [5]) it was 6.52; in the assay on Ab 3642 (C8-PAP-F14 tracer, Ab 3642), 6.52.

For the compound `O=C(O)CN(CCOCCOCCN(CC(=O)O)CC(=O)O)CC(=O)O` [EGTA], in the assay on UGT 2B7 Baculosomes, the “effect on UGT activity” value was “minimal effects” and the “effect on UDP breakdown” value is recorded as “very effectively inhibits UDP breakdown”.

As to `Oc1cccc2ccccc12` [α-naphthol], the acceptor substrate specificity entry at SULT1E1 [1] is “intermediate”.

For `Nc1ncnc2c1ncn2[C@@H]1O[C@H](COP(=O)(O)OP(=O)(O)OP(=O)(O)O)[C@@H](O)[C@H]1O` [ATP, adenosine triphosphate], in assay [3], the pIC50 was 4.82.

With `Nc1nc2c(ncn2[C@@H]2O[C@H](COP(=O)(O)OP(=O)(O)O)[C@@H](O)[C@H]2O)c(=O)[nH]1` [GDP, guanosine diphosphate], the pIC50 on GDP monoclonal antibody is 8.00.

Turning to `Nc1ncnc2c1ncn2[C@@H]1O[C@H](COP(=O)(O)OP(=O)(O)O)[C@@H](O)[C@H]1O` [ADP, adenosine diphosphate], the pIC50 in assay [3] was 6.52.

On to `O=c1ccn([C@@H]2O[C@H](COP(=O)(O)OP(=O)(O)OP(=O)(O)O)[C@@H](O)[C@H]2O)c(=O)[nH]1` [UTP], for which the pIC50 in assay [2] (setting [7]) is 5.30.

On to `O=c1ccn([C@@H]2O[C@H](COP(=O)(O)OP(=O)(O)O)[C@@H](O)[C@H]2O)c(=O)[nH]1` [UDP], for which the pIC50 in assay [2] (setting [7]) is 4.82; in assay [2] (setting [6]), 5.15; in assay [2] (Alexa 568 5-aminoallyl UTP tracer, UGT-1, read-out: IC50 for displacement of tracer from antibody) it was 5.05.

On to `C[C@]12CC[C@@H]3c4ccc(O)cc4CC[C@H]3[C@@H]1CC[C@@H]2O` [estradiol], for which, on SULT1E1 [4], the Km is 0.005 to 0.015 µM.

For the compound `Nc1ncnc2c1ncn2[C@@H]1O[C@H](CO)[C@@H](O)[C@H]1O` [adenosine, Adenosine], the “amount required to displace the tracer” value in assay [3] is “much higher amounts”.

On to `Nc1ncnc2c1ncn2[C@@H]1O[C@H](COP(=O)(O)O)[C@@H](O)[C@H]1O` [AMP], for which the “amount required to displace the tracer” value in assay [3] was “much higher amounts”.

As for Sodium vanadate, in the assay on UGT 2B7 Baculosomes, the “effect on UGT activity” value is “very effectively inhibits UGT activity” and the “effect on UDP breakdown” value is on record as “prevents UDP breakdown”.

With `NCCc1ccc(O)c(O)c1` [dopamine], at SULT1E1 [1], the acceptor substrate specificity entry is “very poor substrates”.
